Test results reported in paper PMC8578629, “Photoactivated cell-killing amino-based flavylium compounds” (Scientific Reports, 2021).
Like-named read-outs stand apart in the source and are kept apart here.

What was measured:
[1] = Oxygen singlet production by Singlet Oxygen Sensor Green assay; conditions: compound 25 μM, after white light irradiation 79.2 J cm^−2
Method: The production of singlet oxygen by the different amino-based compounds in solution was determined as follows: a stock solution of Singlet Oxygen Sensor Green was prepared at 5 mM in methanol (MeOH). Working solutions of the probe were prepared at 2 mM in 100 mM pH 7.5 Tris buffer and in 100 mM pH 7.5 Tris buffer with 10 mM of Sodium Azide. The compounds were then prepared at a stock concentration of 500 μM and the working solutions were prepared in 100 mM pH 7.5 Tris buffer and in 100 mM pH 7.5 Tris buffer with 10 mM of Sodium Azide. 1 μL of Singlet Oxygen Sensor Green working solutions and 100 μL of compounds solution were mixed to a final volume of 1000 μL (in 100 mM pH 7.5 Tris buffer or in 100 mM pH 7.5 Tris buffer with 10 mM of Sodium Azide). 100 μL of each solution was then added to a 96-well black plate and 100 μL of Deuterium Oxide was added for a final concentration of 1 μM Singlet Oxygen Sensor Green and 25 μM for the different amino-based compounds. The fluorescence was then registered in a spectrofluorometer using excitation/emission of 488/525 nm. After this procedure, the wells were irradiated with a white light source with a total of 79.2 J cm^−2, corresponding to a total irradiation time of 1 h (6 pulses of 10 min) and then, the fluorescence determined using the same excitation/emission pair. As a positive control, Methylene Blue was used at a final concentration of 10 μM. The oxygen singlet production methodology was performed in a dark room.

HaCaT cells = assay: Cellular photoactivation assay (white light or dark, Alamar Blue); type: cell-based, human; conditions: for Dark cytotoxicity to HaCaT cells (in words) / Photoactivation, dark versus white light (in words) / IC50: 4 h incubation; for Dark cytotoxicity to HaCaT cells (in words) / Photoactivation, dark versus white light (in words): 6.25–100 μM applied; for Photoactivation, dark versus white light (in words): white light 6.6 J cm^−2; for IC50: Homo sapiens, HaCaT, concentrations corrected for uptake
Method: A white light LED homemade device prototype has 96 LEDs appropriately arranged on a plate of 13 cm length × 8 cm width, with a distance from the microplate surface of 8 cm. The prototype has an irradiance of 21 W m^−2 and a wavelength range of 408–707 nm (Fig. S4).
For the cellular photoactivation assays, the white light source of 21 W m^−2 was used. Briefly, cells were seed at a density of 4 × 10^4 cells/mL onto 96 –well plates and after 24 h the compounds were added to the plates in different concentrations (6.25–100 μM) and incubated for a period of 4 h at 37 °C in an atmosphere of 5% CO2 and in the presence of DMEM with 2% FBS. After this period, the medium with the compounds was removed and fresh medium (DMEM with 2% FBS without phenol red (DMEM_2% FBS_w/o_PR) was added to cells. Following this procedure, cells were submitted to light irradiation, the selected light source at a height of 8 cm, in a chamber designed to ensure the same light quantity for each well during the treatment. Cells were irradiated for 10 min at an intensity of 50%, at room temperature (making a total energy exposition of 6.6 J cm^−2). The dark treatment was prepared by placing the plates for 10 min in a dark box at room temperature. After this, the 96 well plates were placed in an incubator at 37 °C in an atmosphere of 5% CO2 for 24 h. Then, to determine cell survival the Alamar Blue assay was performed as follows: after the 24 h, 20 μL of a solution of Resazurin (0.15 mg mL^−1 in PBS filtered in 0.22 μm filters) were added to each well (making a total volume of 120 μL per well), and the plates were incubated between 4–6 h (until the development of visible color change from violet to pink). The fluorescence intensity of each well was then determined at 560/590 nm (ex/em) (FlexStation 3 Multi-Mode Microplate Reader).

[2] = 4 h, kept in the dark, read-out: IC50 of HaCaT cell survival, DARK
[3] = white light 6.6 J cm^−2 (10 min), read-out: IC50 of HaCaT cell survival, LIGHT

| Compound | ^1O2 production [1] | Dark cytotoxicity to HaCaT cells (in words) (HaCaT cells) | Photoactivation, dark versus white light (in words) (HaCaT cells) | IC50 (HaCaT cells; [2]) | IC50 (HaCaT cells; [3]) | Cell survival, minimum (HaCaT cells; white light irradiation, highest concentration applied) |
| --- | --- | --- | --- | --- | --- | --- |
| CCN(CC)c1ccc2ccc(/C=C/c3ccc(N(C)C)cc3)[o+]c2c1 [7NEt2st4′NMe2, 7-(diethylamino)-2-(4′-dimethylaminostyryl)-benzopyrylium] | 181.2 ± 22.23% | significant dark cytotoxicity | significant photoactivation was found for the last four concentrations | 5110 ± 196 nM | 1080 ± 130 nM |  |
| CCN(CC)c1ccc2ccc(-c3ccc(N)cc3)[o+]c2c1 [7NEt24′NH2, 4′-amino-7-diethylamino-benzopyrylium] | 173.1 ± 15.73% | significant decrease of cell survival | potential photo-activation | 3000 ± 734 nM | 1530 ± 81 nM |  |
| CCN(CC)c1ccc2ccc(-c3ccc(N(C)C)cc3)[o+]c2c1 [7NEt24′NMe2, 7-diethylamino-4′-dimethylamino-benzopyrylium] | 131.2 ± 3.90% | absence of dark cytotoxicity | photoactivation even for low concentrations |  | 905 ± 231 nM | 38% |
| C=CC1=C(C)c2cc3[nH]c(cc4nc(cc5[nH]c(cc1n2)c(C)c5CCC(=O)O)C(CCC(=O)O)=C4C)c(C)c3C=C [PpIX, protoporphyrin IX, reference compound] | 263.3 ± 12.28% | no cytotoxic effects in dark conditions | effective photoactivation from the three higher concentrations |  | 300 nM |  |
